Measured values from ChEMBL document CHEMBL1914343, “Recent progress in synthesis and bioactivity studies of indolizines” (Eur J Med Chem, 2011).

Legend:
[1] = Antioxidant activity assessed as inhibition of lipid peroxidation after 30 mins; assay type: functional
[2] = test system: Mycobacterium tuberculosis; assay: Antimycobacterial activity against Mycobacterium tuberculosis H37Rv ATCC 27294 at 6.25 ug/mL by microplate alamar blue assay; assay type: functional
[3] = test system: Radical scavenging activity; assay: Antioxidant activity assessed as DPPH radical scavenging activity at 667 uM after 15 mins; assay type: functional
[4] = Inhibition of soybean arachidonate 15-lipoxygenase; parameters: species or system Glycine max
[5] = target: T1, Polyunsaturated fatty acid lipoxygenase ALOX15 (Oryctolagus cuniculus, UniProt P12530); assay: Inhibition of rabbit reticulocytes arachidonate 15-lipoxygenase
T1 sequence (P12530 whole entry): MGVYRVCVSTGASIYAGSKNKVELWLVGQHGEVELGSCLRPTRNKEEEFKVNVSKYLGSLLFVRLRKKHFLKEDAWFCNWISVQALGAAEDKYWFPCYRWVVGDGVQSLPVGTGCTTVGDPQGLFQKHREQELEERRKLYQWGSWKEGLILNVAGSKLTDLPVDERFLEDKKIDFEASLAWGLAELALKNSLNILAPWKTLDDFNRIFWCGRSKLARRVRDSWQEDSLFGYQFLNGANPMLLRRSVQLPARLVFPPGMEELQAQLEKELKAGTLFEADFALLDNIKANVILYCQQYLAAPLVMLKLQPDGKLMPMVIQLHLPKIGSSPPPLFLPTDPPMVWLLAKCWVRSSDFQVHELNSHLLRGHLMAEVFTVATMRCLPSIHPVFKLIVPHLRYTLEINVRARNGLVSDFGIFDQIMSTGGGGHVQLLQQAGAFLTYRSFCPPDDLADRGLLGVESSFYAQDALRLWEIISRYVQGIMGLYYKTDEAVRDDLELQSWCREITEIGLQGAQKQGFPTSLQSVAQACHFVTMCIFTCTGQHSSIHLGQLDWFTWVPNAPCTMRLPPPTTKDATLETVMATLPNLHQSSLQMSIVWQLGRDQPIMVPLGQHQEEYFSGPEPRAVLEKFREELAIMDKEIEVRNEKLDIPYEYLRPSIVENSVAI

Row | Compound | IC50 [4] [µM] | further results
1 | N#Cc1ccn2c(-c3ccccc3)c(-c3ccccc3)c(Br)c2c1 | – | IC50 [1]: > 100 µM; inhibition at 6.25 µg/mL [2]: 69%
2 | N#Cc1ccn2c(-c3ccccc3)c(-c3ccccc3)c(OCc3ccc(Cl)cc3)c2c1 | 31 | Activity [3]: 1.3%
3 | N#Cc1ccn2c(-c3ccc(Cl)cc3)c(-c3ccc(Cl)cc3)cc2c1 | 33 | –
4 | N#Cc1ccn2c(-c3ccc(F)cc3)c(-c3ccc(F)cc3)cc2c1 | 30 | –
5 | Cc1c(-c2ccccc2)c(-c2ccccc2)n2ccc(C#N)cc12 | 27 | Activity [3]: -0.9%; inhibition at 6.25 µg/mL [2]: 41%
6 | COc1ccc(COc2c(-c3ccccc3)c(-c3ccccc3)n3ccc(C#N)cc23)cc1 | 32 | Activity [3]: 33.3%
7 | CC(C)S(=O)(=O)Oc1c(-c2ccccc2)c(-c2ccccc2)n2ccc(C#N)cc12 | 42 | –
8 | N#Cc1ccn2c(-c3ccccc3)c(-c3ccccc3)c(C(=O)c3ccccc3)c2c1 | 23 | inhibition at 6.25 µg/mL [2]: 33%; IC50 [5]: 43 µM
9 | N#Cc1ccn2c(-c3ccccc3)c(-c3ccccc3)c(-c3ccco3)c2c1 | 24 | IC50 [1]: > 100 µM; Activity [3]: -0.6%
10 | Cc1ccc(S(=O)(=O)Oc2c(-c3ccc(F)cc3)c(-c3ccc(F)cc3)n3ccc(C#N)cc23)cc1 | 22 | –
11 | CC(O)c1c(-c2ccccc2)c(-c2ccccc2)n2ccc(C#N)cc12 (configuration not stated) | 26 | inhibition at 6.25 µg/mL [2]: 78%
12 | N#Cc1ccn2c(-c3ccccc3)c(-c3ccccc3)c(OS(=O)(=O)c3ccc(Cl)cc3)c2c1 | 22 | –
13 | N#Cc1ccn2c(-c3ccccc3)c(-c3ccccc3)c(OS(=O)c3ccsc3)c2c1 (configuration not stated) | 23 | –
14 | N#Cc1ccn2c(-c3ccccc3)c(-c3ccccc3)c(CO)c2c1 | 26 | inhibition at 6.25 µg/mL [2]: 67%; IC50 [5]: 34 µM
15 | Cc1ccc(S(=O)(=O)Oc2c(-c3ccccc3)c(-c3ccccc3)n3ccccc23)cc1 | 25 | –
16 | Cc1ccc(-c2cc3cc(C#N)ccn3c2-c2ccc(C)cc2)cc1 | 27 | –
17 | N#Cc1ccn2c(-c3ccccc3)c(-c3ccccc3)c(OCc3cccc(Cl)c3)c2c1 | 31 | Activity [3]: -0.1%
18 | Cc1ccc(S(=O)(=O)Oc2c(-c3ccc(Cl)cc3)c(-c3ccc(Cl)cc3)n3ccc(C#N)cc23)cc1 | 20 | –
19 | CCCCc1c(OS(=O)(=O)c2ccc(C)cc2)c2cc(C#N)ccn2c1CCCC | 30 | –
20 | O=c1c(O)c(-c2ccc(O)c(O)c2)oc2cc(O)cc(O)c12 [QUERCETIN] | 51 | IC50 [5]: 37 µM
21 | CCc1c(OS(=O)(=O)c2ccc(C)cc2)c2cc(C#N)ccn2c1CC | 29 | –

Row | Compound | IC50 [4] [µM] | further results
22 | N#Cc1ccn2c(-c3ccccc3)c(-c3ccccc3)c(C=O)c2c1 | 29 | inhibition at 6.25 µg/mL [2]: 35%; IC50 [5]: 61 µM
23 | COc1ccc(-c2c(OS(=O)(=O)c3ccc(C)cc3)c3cc(C#N)ccn3c2-c2ccc(OC)cc2)cc1 | 24 | –
24 | N#Cc1ccn2c(-c3ccccc3)c(-c3ccccc3)c(Cc3ccccc3)c2c1 | 27 | inhibition at 6.25 µg/mL [2]: 43%; IC50 [5]: 46 µM
25 | COc1ccccc1C(=O)Oc1c(-c2ccccc2)c(-c2ccccc2)n2ccc(C#N)cc12 | 30 | Activity [3]: 4.7%
26 | N#Cc1ccn2c(-c3ccccc3)c(-c3ccccc3)c(OCOCc3ccccc3)c2c1 | 27 | Activity [3]: 0.1%; IC50 [5]: 39 µM
27 | Cc1ccccc1S(=O)(=O)Oc1c(-c2ccccc2)c(-c2ccccc2)n2ccc(C#N)cc12 | 22 | –
28 | Cc1ccc(COc2c(-c3ccccc3)c(-c3ccccc3)n3ccc(C#N)cc23)cc1 | 37 | Activity [3]: -0.8%
29 | Cc1cc(C)c(S(=O)(=O)Oc2c(-c3ccccc3)c(-c3ccccc3)n3ccc(C#N)cc23)c(C)c1 | 17 | –
30 | N#Cc1ccn2c(-c3ccccc3)c(-c3ccccc3)c(-c3ccccc3)c2c1 | 28 | IC50 [1]: > 100 µM; inhibition at 6.25 µg/mL [2]: 8%
31 | Cc1ccc(S(=O)(=O)Oc2c(-c3ccccc3)c(-c3ccccc3)n3ccc(C=O)cc23)cc1 | 20 | –
32 | N#Cc1ccn2c(-c3ccccc3)c(-c3ccccc3)c(OS(=O)(=O)c3ccccc3)c2c1 | 24 | –
33 | COc1ccc(S(=O)(=O)Oc2c(-c3ccc(C)cc3)c(-c3ccc(C)cc3)n3ccc(C#N)cc23)cc1 | 25 | –
34 | Cc1ccc(S(=O)(=O)c2c(-c3ccccc3)c(-c3ccccc3)n3ccc(C#N)cc23)cc1 | 29 | –
35 | N#Cc1ccn2c(-c3ccccc3)c(-c3ccccc3)c(OCOC(COCc3ccccc3)COCc3ccccc3)c2c1 | 31 | Activity [3]: 4.2%
36 | CN(C)S(=O)(=O)Oc1c(-c2ccccc2)c(-c2ccccc2)n2ccc(C#N)cc12 | 25 | –
37 | Cc1ccc(S(=O)(=O)Oc2c(-c3ccccc3)c(-c3ccccc3)n3ccc(C#N)cc23)cc1C | 19 | –
38 | Cc1ccc(-c2c(OS(=O)(=O)c3ccc(C)cc3)c3cc(C#N)ccn3c2-c2ccc(C)cc2)cc1 | 20 | –
39 | COc1ccc(S(=O)(=O)Oc2c(-c3ccccc3)c(-c3ccccc3)n3ccc(C#N)cc23)c(OC)c1 | 27 | –
40 | C=Cc1c(-c2ccccc2)c(-c2ccccc2)n2ccc(C#N)cc12 | – | IC50 [1]: > 100 µM
41 | CCS(=O)(=O)Oc1c(-c2ccccc2)c(-c2ccccc2)n2ccc(C#N)cc12 | 28 | –
42 | COc1ccc(S(=O)(=O)Oc2c(-c3ccccc3)c(-c3ccccc3)n3ccc(C#N)cc23)cc1 | 25 | –

Row | Compound | IC50 [4] [µM] | further results
43 | COC(c1ccccc1)c1c(-c2ccccc2)c(-c2ccccc2)n2ccc(C#N)cc12 (configuration not stated) | 21 | inhibition at 6.25 µg/mL [2]: 74%
44 | COc1cccc(C(=O)Oc2c(-c3ccccc3)c(-c3ccccc3)n3ccc(C#N)cc23)c1 | 28 | Activity [3]: 1.2%
45 | COc1ccc(C(O)c2c(-c3ccccc3)c(-c3ccccc3)n3ccc(C#N)cc23)cc1 (configuration not stated) | 17 | inhibition at 6.25 µg/mL [2]: 87%
46 | N#Cc1ccn2c(-c3ccccc3)c(-c3ccccc3)c(-c3cccs3)c2c1 | 20 | IC50 [1]: > 100 µM; Activity [3]: -1.8%
47 | COc1ccc(OC)c(S(=O)(=O)Oc2c(-c3ccccc3)c(-c3ccccc3)n3ccc(C#N)cc23)c1 | 15 | –
48 | N#Cc1ccn2c(-c3ccccc3)c(-c3ccccc3)c(OCc3ccc(F)cc3)c2c1 | 35 | Activity [3]: 1.8%
49 | CC(=O)c1ccn2c(-c3ccccc3)c(-c3ccccc3)c(OS(=O)(=O)c3ccc(C)cc3)c2c1 | 23 | –
50 | COc1ccccc1-c1c(-c2ccccc2)c(-c2ccccc2)n2ccc(C#N)cc12 | 20 | IC50 [1]: > 100 µM; Activity [3]: -0.2%
51 | COc1cccc(-c2c(-c3ccccc3)c(-c3ccccc3)n3ccc(C#N)cc23)c1 | 20 | IC50 [1]: > 100 µM; Activity [3]: -0.3%
52 | CS(=O)(=O)c1ccc(S(=O)(=O)Oc2c(-c3ccccc3)c(-c3ccccc3)n3ccc(C#N)cc23)cc1 | 24 | –
53 | CC(O)(c1ccccc1)c1c(-c2ccccc2)c(-c2ccccc2)n2ccc(C#N)cc12 (configuration not stated) | 17 | inhibition at 6.25 µg/mL [2]: 71%
54 | COc1ccc(C(=O)Oc2c(-c3ccccc3)c(-c3ccccc3)n3ccc(C#N)cc23)cc1 | 28 | Activity [3]: 5.4%
55 | N#Cc1ccn2c(-c3ccccc3)c(-c3ccccc3)c(-c3ccsc3)c2c1 | 19 | IC50 [1]: > 100 µM; Activity [3]: 0%
56 | CS(=O)(=O)Oc1c(-c2ccccc2)c(-c2ccccc2)n2ccc(C#N)cc12 | 22 | –
57 | CC(C)c1ccc(S(=O)(=O)Oc2c(-c3ccccc3)c(-c3ccccc3)n3ccc(C#N)cc23)cc1 | 16 | –
58 | COc1ccccc1COc1c(-c2ccccc2)c(-c2ccccc2)n2ccc(C#N)cc12 | 29 | Activity [3]: 1.6%
59 | N#Cc1ccn2c(-c3ccccc3)c(-c3ccccc3)c(OCc3ccccc3)c2c1 | 31 | Activity [3]: 0.8%
60 | N#Cc1ccn2c(-c3ccccc3)c(-c3ccccc3)c(OS(=O)(=O)c3ccc(C(F)(F)F)cc3)c2c1 | 23 | –
61 | N#Cc1ccn2c(-c3ccccc3)c(-c3ccccc3)c(OS(=O)c3cccs3)c2c1 (configuration not stated) | 21 | –
